Assay results as given in patent US20180335421A1, “METHOD FOR SCREENING INHIBITORS TARGETING ANTI-APOPTOTIC SURVIVAL PATHWAYS” (Memorial Sloan-Kettering Cancer Center, priority 2015, published 2018).

What was measured:
MCL-1 = MCL-1 (Homo sapiens, UniProt Q07820); conditions: background statement; cited from earlier work
A549 cells = experiment: ABT-737-induced apoptosis after knockdown of MCL-1; assay type: cell-based, human; conditions: A549 cells with knockdown of MCL-1
parental H23 cells = experiment: Treatment of parental (MCL-1-addicted) H23 cells with BCL-2, BCL-XL and MCL-1 inhibitors; assay type: cell-based, human; conditions: parental H23 cells (MCL-1-addicted); FIG. 3B
BCL-2-addicted H23 cells = experiment: Treatment of engineered H23 cell lines with BCL-2, BCL-XL and MCL-1 inhibitors to confirm selective addiction; assay type: cell-based, human; conditions: BCL-2-addicted H23 cells (BCL-2 overexpression, MCL-1 knockdown); FIG. 3B
[1] = test system: BCL-XL-addicted H23 cells; experiment: as above; conditions: BCL-XL-addicted H23 cells (BCL-XL overexpression, MCL-1 knockdown); FIG. 3B
Text: Isogenic H23 cancer cell lines with selective addiction to MCL-1, BCL-2, or BCL-XL.

[2] = test system: MCL-1-IRES-BIM or MCL-1-IRES-PUMA MEFs; experiment: Apoptosis induction by BH3-only proteins in engineered MEFs; assay type: cell-based, mouse; conditions: MCL-1-addicted MEFs; FIGS. 2A and 2B
Text: (§1) Cellular dependency on BCL-2, BCL-XL or MCL-1 for survival is governed by the relative abundance among these proteins (FIG. 1). Intricate interplays among the BCL-2 subfamilies govern cellular survival/death, and also provide a molecular blueprint concerning the clinical application of BH3-mimetics in killing cancer cells. Using MEFs that express different combinations of anti-apoptotic BCL-2 members and activator BH3s, a system has been built that can distinguish between the inhibition of BCL-2/BCL-XL and MCL-1 by BAD/BAD mimetics and […]/NOXA mimetics, respectively (FIGS. 2A and 2B).
(§2) Importantly, this system mimics the “primed” cell death state of many cancers with abundant pre-assembled complexes of BCL-XL/BIM, BCL-XL/PUMA, BCL-2/BIM, BCL-2/PUMA, MCL-1/BIM or MCL-1/PUMA. […] In addition, compounds that downregulate MCL-1 mRNA and/or protein or induce endogenous NOXA, BIM, or PUMA will trigger similar death patterns.

wild-type cells = experiment: Sensitivity of wild-type cells to BH3-only proteins; assay type: cell-based, mouse; conditions: wild-type cells lacking pre-assembled cell death priming complexes; FIG. 2B
Text: as §2

[3] = test system: BCL-XL-IRES-BIM, BCL-XL-IRES-PUMA, BCL-2-IRES-BIM or BCL-2-IRES-PUMA MEFs; experiment: Apoptosis induction by BH3-only proteins in engineered MEFs; assay type: cell-based, mouse; conditions: BCL-XL- or BCL-2-addicted MEFs; FIGS. 2A and 2B
Text: as §1, §2

Chain of MCL-1 (Q07820 whole entry): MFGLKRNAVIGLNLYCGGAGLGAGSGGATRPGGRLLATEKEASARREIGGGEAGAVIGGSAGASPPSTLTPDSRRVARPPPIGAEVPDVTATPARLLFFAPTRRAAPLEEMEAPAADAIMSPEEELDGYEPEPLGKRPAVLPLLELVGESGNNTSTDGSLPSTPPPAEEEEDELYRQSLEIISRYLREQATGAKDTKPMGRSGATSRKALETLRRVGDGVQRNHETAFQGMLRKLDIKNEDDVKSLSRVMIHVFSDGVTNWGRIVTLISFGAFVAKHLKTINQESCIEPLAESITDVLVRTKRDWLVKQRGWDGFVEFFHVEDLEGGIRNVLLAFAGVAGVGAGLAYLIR

Q: Which “inhibition of MCL-1” value (MCL-1) does the source give for CC1(C)CCC(c2ccc(Cl)cc2)=C(CN2CCN(c3ccc(C(=O)NS(=O)(=O)c4ccc(N[C@H](CCN5CCOCC5)CSc5ccccc5)c(S(=O)(=O)C(F)(F)F)c4)cc3)CC2)C1 [ABT-263] here?
A: fail to inhibit

Q: With CN(C)CC[C@H](CSc1ccccc1)Nc1ccc(S(=O)(=O)NC(=O)c2ccc(N3CCN(Cc4ccccc4-c4ccc(Cl)cc4)CC3)cc2)cc1[N+](=O)[O-] [ABT-737, (R)-4-(4-((4′-chloro-[1,1′-biphenyl]-2-yl)methyl)piperazin-1-yl)-N-((4-((-4-(dimethylamino)-1-(phenylthio)butan-2-yl)amino)-3-nitrophenyl)sulfonyl)benzamide] as the molecule, how does the “susceptibility to ABT-737-induced apoptosis” value (A549 cells) read?
A: susceptible

Q: What about the “sensitivity of cells to inhibitor” value (parental H23 cells) of the same molecule?
A: only sensitive to inhibitors of MCL-1

Q: What about the “sensitivity of cells to inhibitor” value (BCL-2-addicted H23 cells) of the same molecule?
A: sensitive

Q: And the “sensitivity of cells to inhibitor” value [1]?
A: sensitive

Q: For “NOXA: pro-apoptotic BH3-only member of the BCL-2 protein family that specifically inactivates MCL-1 (MPGKKARKNAQPSPARAPAELEVECATQLRRFGDKLNFRQKLLNLISKLFCSGT; UniProt Q13794 1-54, looked up)”, which induction of apoptosis [2] is on record?
A: selectively induces apoptosis

Q: What about the “sensitivity of wild-type cells” value (wild-type cells) of the same molecule?
A: less sensitive

B1: BAD: pro-apoptotic BH3-only BCL-2 family protein that binds to BCL-XL and BCL-2 but not MCL-1 (protein, UniProt Q92934 1-168, looked up)
Bcl2-associated agonist of …: MFQIPEFEPSEQEDSSSAERGLGPSPAGDGPSGSGKHHRQAPGLLWDASHQQEQPTSSSHHGGAGAVEIRSRHSSYPAGTEDDEGMGEEPSPFRGRSRSAPPNLWAAQRYGRELRRMSDEFVDSFKKGLPRPKSAGTATQMRQSSSWTRVFQSWWDRNLGRGSSAPSQ
Q: Which induction of apoptosis [3] does the source give for B1 here?
A: induces apoptosis

Q: And the “sensitivity of wild-type cells” value (wild-type cells)?
A: less sensitive
